Article PMC12698445, “Phenolic profile of different solvent extracts of Reseda alba L. and evaluation of anti-quorum sensing, antioxidant, and enzyme inhibition activities” (Frontiers in Nutrition, 2025)

Target: T1, fungal tyrosinase
T1 construct: gene PPO3; only 'fungal' printed
Assay: L-DOPA oxidation, […] nm
Format: biochemical
Settings: L-DOPA substrate, pH 6.8, room temperature

Tyrosinase / IC50: 23.80 ± 0.25 µg/mL
Structure (SMILES): O=c1cc(CO)occ1O [Kojic acid]
